# Test results: US9758485B2, “Compounds for controlling arthropods” (priority 2013, dated 2017)
# Tested on: Lucilia cuprina
# Assay: Lucilia cuprina test
# Format: in vivo
# Conditions: application rate 100 ppm; L1 larvae in minced horsemeat; kill after 2 days
# Experimental: (§1) Solvent: dimethyl sulphoxide
# (§2) To produce an appropriate active ingredient formulation, 10 mg of active ingredient are mixed with 0.5 ml of dimethyl sulphoxide, and the concentrate is diluted with water to the desired concentration.
# About 20 L1 larvae of the Australian sheep blowfly (Lucilia cuprina) are transferred into a test vessel containing minced horsemeat and the active ingredient preparation of the desired concentration.
# After 2 days, the kill in % is determined. 100% means that all the larvae have been killed; 0% means that none of the larvae have been killed.
row,SMILES,efficacy
1,N#CC1(NC(=O)c2cc(-c3cnn(-c4ccc(OC(F)(F)F)cc4Cl)c3)ccc2Cl)CC1 [I-T3-89],100%
2,Cc1cc(C(F)(C(F)(F)F)C(F)(F)F)cc(C)c1-n1cc(-c2cnc(C3CC3)c(C(=O)NC3(C#N)CC3)c2)cn1 [I-T3-139],100%
3,Cc1cc(C(F)(C(F)(F)F)C(F)(F)F)cc(C)c1-n1cc(-c2cnc(C3CC3)c(C(=O)NC3CC3)c2)cn1 [I-T3-140],100%
4,COc1ncc(-c2cnn(-c3c(C)cc(C(F)(C(F)(F)F)C(F)(F)F)cc3C)c2)cc1C(=O)N(C)C1CC1 [I-T3-144],100%
5,Cn1ccc(NC(=O)c2cc(-c3cnn(-c4c(Cl)cc(C(F)(F)F)cc4Cl)c3)cnc2Cl)n1 [I-T3-146],90%
6,N#CC1(NC(=O)c2cc(-c3cnn(-c4ncc(C(F)(F)F)cc4C(F)(F)F)c3)ccc2Cl)CC1 [I-T3-149],100%
7,O=C(NC1CC1)c1cc(-c2cnn(-c3ncc(C(F)(F)F)cc3C(F)(F)F)c2)ccc1Cl [I-T3-150],100%
8,N#CC1(NC(=O)c2cc(-c3cnn(-c4ncc(C(F)(C(F)(F)F)C(F)(F)F)cc4Cl)c3)ccc2Cl)CC1 [I-T3-151],100%

# Tested on: Ctenocephalides felis
# Assay: Ctenocephalides felis - oral test
# Format: in vivo
# Conditions: application rate 100 ppm in citrated cattle blood; adult fleas; kill after 2 days
# Experimental: Ctenocephalides felis—Oral Test
# as §1
# For the purpose of producing an appropriate active ingredient formulation, 10 mg of active ingredient are mixed with 0.5 ml of dimethyl sulphoxide. Dilution with citrated cattle blood gives the desired concentration.
# About 20 unfed adult cat fleas (Ctenocephalides felis) are placed into a chamber which is closed at the top and bottom with gauze. A metal cylinder whose bottom end is closed with parafilm is placed onto the chamber. The cylinder contains the blood/active ingredient preparation, which can be imbibed by the fleas through the parafilm membrane.
# After 2 days, the kill in % is determined. 100% means that all of the fleas have been killed; 0% means that none of the fleas have been killed.
row,SMILES,efficacy
1,N#CC1(NC(=O)c2cc(-c3cnn(-c4ccc(OC(F)(F)F)cc4Cl)c3)ccc2Cl)CC1 [I-T3-89],100%
2,Cc1cc(C(F)(C(F)(F)F)C(F)(F)F)cc(C)c1-n1cc(-c2cnc(C3CC3)c(C(=O)NC3(C#N)CC3)c2)cn1 [I-T3-139],100%
3,Cc1cc(C(F)(C(F)(F)F)C(F)(F)F)cc(C)c1-n1cc(-c2cnc(C3CC3)c(C(=O)NC3CC3)c2)cn1 [I-T3-140],100%
4,COc1ncc(-c2cnn(-c3c(C)cc(C(F)(C(F)(F)F)C(F)(F)F)cc3C)c2)cc1C(=O)N(C)C1CC1 [I-T3-144],90%
5,Cn1ccc(NC(=O)c2cc(-c3cnn(-c4c(Cl)cc(C(F)(F)F)cc4Cl)c3)cnc2Cl)n1 [I-T3-146],100%
6,N#CC1(NC(=O)c2cc(-c3cnn(-c4ncc(C(F)(F)F)cc4C(F)(F)F)c3)ccc2Cl)CC1 [I-T3-149],100%
7,O=C(NC1CC1)c1cc(-c2cnn(-c3ncc(C(F)(F)F)cc3C(F)(F)F)c2)ccc1Cl [I-T3-150],100%
8,N#CC1(NC(=O)c2cc(-c3cnn(-c4ncc(C(F)(C(F)(F)F)C(F)(F)F)cc4Cl)c3)ccc2Cl)CC1 [I-T3-151],100%

# Tested on: not listed separately
# Assay: logP determination by HPLC on a reversed-phase column (C18), EEC Directive 79/831 Annex V.A8
# Format: physicochemical
# Conditions: HPLC-MS method a), Table I-T3
row,SMILES,logP^a)
1,N#CC1(NC(=O)c2cc(-c3cnn(-c4ccc(OC(F)(F)F)cc4Cl)c3)ccc2Cl)CC1 [I-T3-89],3.5

# Same assay, conditions: HPLC-MS, reversed-phase column (C18)
row,SMILES,log P
1,Cc1cc(C(F)(C(F)(F)F)C(F)(F)F)cc(C)c1-n1cc(-c2cnc(C3CC3)c(C(=O)NC3(C#N)CC3)c2)cn1 [I-T3-139],4.1
2,Cc1cc(C(F)(C(F)(F)F)C(F)(F)F)cc(C)c1-n1cc(-c2cnc(C3CC3)c(C(=O)NC3CC3)c2)cn1 [I-T3-140],4.2
3,COc1ncc(-c2cnn(-c3c(C)cc(C(F)(C(F)(F)F)C(F)(F)F)cc3C)c2)cc1C(=O)N(C)C1CC1 [I-T3-144],4.4
4,Cn1ccc(NC(=O)c2cc(-c3cnn(-c4c(Cl)cc(C(F)(F)F)cc4Cl)c3)cnc2Cl)n1 [I-T3-146],2.8
5,N#CC1(NC(=O)c2cc(-c3cnn(-c4ncc(C(F)(F)F)cc4C(F)(F)F)c3)ccc2Cl)CC1 [I-T3-149],3.5
6,O=C(NC1CC1)c1cc(-c2cnn(-c3ncc(C(F)(F)F)cc3C(F)(F)F)c2)ccc1Cl [I-T3-150],3.6
7,N#CC1(NC(=O)c2cc(-c3cnn(-c4ncc(C(F)(C(F)(F)F)C(F)(F)F)cc4Cl)c3)ccc2Cl)CC1 [I-T3-151],4.0

# Tested on: Musca domestica
# Assay: Musca domestica test
# Format: in vivo
# Conditions: application rate 100 ppm; adult houseflies; kill after 2 days
# Experimental: as §1, §2
# Vessels containing a sponge treated with sugar solution and the active ingredient formulation of the desired concentration are populated with 10 adult houseflies (Musca domestica).
# After 2 days, the kill in % is determined. 100% means that all of the flies have been killed; 0% means that none of the flies have been killed.
row,SMILES,efficacy
1,N#CC1(NC(=O)c2cc(-c3cnn(-c4ccc(OC(F)(F)F)cc4Cl)c3)ccc2Cl)CC1 [I-T3-89],100%
2,Cc1cc(C(F)(C(F)(F)F)C(F)(F)F)cc(C)c1-n1cc(-c2cnc(C3CC3)c(C(=O)NC3(C#N)CC3)c2)cn1 [I-T3-139],90%
3,COc1ncc(-c2cnn(-c3c(C)cc(C(F)(C(F)(F)F)C(F)(F)F)cc3C)c2)cc1C(=O)N(C)C1CC1 [I-T3-144],100%
4,N#CC1(NC(=O)c2cc(-c3cnn(-c4ncc(C(F)(F)F)cc4C(F)(F)F)c3)ccc2Cl)CC1 [I-T3-149],100%
5,O=C(NC1CC1)c1cc(-c2cnn(-c3ncc(C(F)(F)F)cc3C(F)(F)F)c2)ccc1Cl [I-T3-150],100%
6,N#CC1(NC(=O)c2cc(-c3cnn(-c4ncc(C(F)(C(F)(F)F)C(F)(F)F)cc4Cl)c3)ccc2Cl)CC1 [I-T3-151],100%

# Tested on: Boophilus microplus
# Assay: Boophilus microplus - injection test
# Format: in vivo
# Conditions: application rate 20 μg/animal; injected into engorged adult female ticks; laying of fertile eggs, after 7 days
# Experimental: Boophilus microplus—Injection Test
# as §1
# To produce an appropriate active ingredient formulation, 10 mg of active ingredient are mixed with 0.5 ml of solvent and the concentrate is diluted with solvent to the desired concentration.
# 1 μl of the active ingredient solution is injected into the abdomen of 5 engorged adult female cattle ticks (Boophilus microplus). The animals are transferred into dishes and kept in a climate-controlled room.
# Efficacy is assessed after 7 days by laying of fertile eggs. Eggs which are not visibly fertile are stored in a climate-controlled cabinet until the larvae hatch after about 42 days. An efficacy of 100% means that none of the ticks has laid any fertile eggs; 0% means that all the eggs are fertile.
row,SMILES,efficacy
1,N#CC1(NC(=O)c2cc(-c3cnn(-c4ccc(OC(F)(F)F)cc4Cl)c3)ccc2Cl)CC1 [I-T3-89],100%
2,Cc1cc(C(F)(C(F)(F)F)C(F)(F)F)cc(C)c1-n1cc(-c2cnc(C3CC3)c(C(=O)NC3(C#N)CC3)c2)cn1 [I-T3-139],100%
3,Cc1cc(C(F)(C(F)(F)F)C(F)(F)F)cc(C)c1-n1cc(-c2cnc(C3CC3)c(C(=O)NC3CC3)c2)cn1 [I-T3-140],100%
4,COc1ncc(-c2cnn(-c3c(C)cc(C(F)(C(F)(F)F)C(F)(F)F)cc3C)c2)cc1C(=O)N(C)C1CC1 [I-T3-144],100%
5,Cn1ccc(NC(=O)c2cc(-c3cnn(-c4c(Cl)cc(C(F)(F)F)cc4Cl)c3)cnc2Cl)n1 [I-T3-146],100%
6,N#CC1(NC(=O)c2cc(-c3cnn(-c4ncc(C(F)(F)F)cc4C(F)(F)F)c3)ccc2Cl)CC1 [I-T3-149],100%
7,O=C(NC1CC1)c1cc(-c2cnn(-c3ncc(C(F)(F)F)cc3C(F)(F)F)c2)ccc1Cl [I-T3-150],100%
8,N#CC1(NC(=O)c2cc(-c3cnn(-c4ncc(C(F)(C(F)(F)F)C(F)(F)F)cc4Cl)c3)ccc2Cl)CC1 [I-T3-151],100%
